Measurements: patent publication US20250177423A1, “PHOTORESPONSIVE PEPTIDE DELIVERY SYSTEM AND METHOD OF USING THE SAME” (THE UNIVERSITY OF HONG KONG, priority 2023, published 2025)

What was measured:
[1] = tested on: laser induced CNV; experiment: Laser induced CNV mouse model, imageological examination (OCTA, FFA, OCT); assay type: in vivo, C57BL/6 mice; settings: i.v. day 3 and 5, AS16 equivalent 2 mg/kg, day 7
Experimental: Four laser spots were produced on the fundus of mice by 810 nm laser to induce CNV. Specifically, C57BL/6 mice (6-8 w) were anesthetized with 1% pentobarbital sodium (40 mg/kg). Then their pupils were dilated with 0.5% tropicamide eyedrops and received local anesthesia by tetracaine eye drops, followed by carboxymethylcellulose sodium eye drops for prevention of ocular surface dehydration. Each mouse's eyes were applied four laser (six in case of western blot analysis) burns (810 nm wavelength, 140 mW of power, 75 μm of spot size, 75 ms of duration) with OcuLight Infrared Laser System at almost equal distance to the optic nerve head. Afterwards, the mice received chloramphenicol eye drops for infection prevention and rested on heating pad until consciousness. […] On day 3 and day 5 after laser photocoagulation, 2 mg/kg AS16 peptide and quantity equivalent nanoLAMPs were administered intravenously through tail veins. […] On day 7 post CNV induction, FFA (fluorescence fundus angiography) and OCTA (optical coherence tomography angiography) images of each group was collected, and the mice were then euthanized. […] Only the scan that passed through the center of the lesion was used to measure the thickness and length of the CNV lesion, which was analyzed and calculated by using ImageJ software and GraphPad Prism. […]

[2] = tested on: HUVEC cells; experiment: Migration assay (trans-well); assay type: cell-based, human; settings: without light irradiation; AS16 equivalent 5 μM; 24 h
Experimental: 200 μL serum-free medium containing 2*10^4 HUVEC cells were seeded in the upper chamber of the trans-well and 600 μL full medium was loaded in the lower chamber. Different drugs were added to the upper chamber. The grouping and treatment method as well as the calculation was consistent with above.
(§1) To verify the anti-angiogenic property of nanoLAMPs in vitro, tube formation assay, migration assay, and wound healing assay were also conducted on HUVECs and the concentration of each group was set equal to nanoLAMPs containing 5 μM AS16 peptide.

[3] = tested on: HUVEC cells; experiment: Wound healing assay; assay type: cell-based, human; settings: without light irradiation; AS16 5 μM
Experimental: 5*10^5 HUVEC cells were seeded in the 24-well plates and incubated until they reached 90% confluence. Afterwards, a scratch crossing each well was conducted by 200 μL pipette head. The cells were then be washed with PBS for 2 times to remove the flouting cells and incubated with 1 ml DMEM medium with 5% FBS. The grouping and treatment method was consistent with above. The data of each group was measured and analyzed by Image J and GraphPad Prism, respectively.
as §1

[4] = tested on: laser induced CNV; experiment: Laser induced CNV mouse model, isolated tissue (choroidal flat mounts CD31/Ki-67, H&E); assay type: in vivo, C57BL/6 mice; settings: without light irradiation; systemic administration
Experimental: Four laser spots were produced on the fundus of mice by 810 nm laser to induce CNV. Specifically, C57BL/6 mice (6-8 w) were anesthetized with 1% pentobarbital sodium (40 mg/kg). Then their pupils were dilated with 0.5% tropicamide eyedrops and received local anesthesia by tetracaine eye drops, followed by carboxymethylcellulose sodium eye drops for prevention of ocular surface dehydration. Each mouse's eyes were applied four laser (six in case of western blot analysis) burns (810 nm wavelength, 140 mW of power, 75 μm of spot size, 75 ms of duration) with OcuLight Infrared Laser System at almost equal distance to the optic nerve head. Afterwards, the mice received chloramphenicol eye drops for infection prevention and rested on heating pad until consciousness. […] On day 3 and day 5 after laser photocoagulation, 2 mg/kg AS16 peptide and quantity equivalent nanoLAMPs were administered intravenously through tail veins. […] On day 7 post CNV induction, FFA (fluorescence fundus angiography) and OCTA (optical coherence tomography angiography) images of each group was collected, and the mice were then euthanized. […] Flat-mounted RPE-choroid slides were prepared by making 4 cuts from margin to the optic nerve, and the fluorescence images were acquired by confocal microscopy (LMS980 Carl Zeiss). The CNV lesion area was quantitatively analyzed by ImageJ software. […]

[5] = tested on: IL-2 and TNF-α gene expression in Jurkat T cells; experiment: RT-qPCR of cytokine gene expression in Jurkat T cells co-cultured with MDA-MB-231 cells (PD-L1 blockade); assay type: cell-based; settings: Jurkat T cells after co-culture with MDA-MB-231 cells; FM12 released from cFM12 nanoparticles; vs PBS control
Source text: FIGS. 13A-F. BODIPY-caged FM12 peptide (cFM12) nanoparticles for photo-triggered PD-L1 blockade. […] (E) Size distribution of nanoparticles. (F) Schematic diagram of cFM12 nanoparticles. (*: p<0.05; **: p<0.01; ***: p<0.001). The data are presented as mean±SEM.
To further explore whether the BODIPY photocage can be utilized to deliver other hydrophilic peptides, a peptide inhibitor (FPNWSLRPMNQM, SEQ ID NO: 2, FM12) targeting programmed death ligand 1 (PD-L1) was conjugated with BODIPY at N-terminus to synthesize BODIPY-caged FM12 (cFM12). The conjugate could also form stable polymeric nanoparticles with the help of PEG3.4K-PLA5K. […] For nanoparticle preparation, in brief, 2 μL of 10 mg/mL cFM12 was mixed with 2 μL of 100 mg/mL PEG3.4K-PLA5K in DMSO solution. […] As shown in FIGS. 13e and 13f, the fabricated nanoparticles had well-dispersed size distribution with diameter around 122 nm and PDI around 0.2.

COc1ccc(C=CC2=[N+]3C(=C(CO)c4c(C)cc(C=Cc5ccc(OC)cc5)n4[B-]3(C)C)C(C)=C2)cc1 [BODIPY, (3,7-bis((E)-4-methoxystyryl)-1,5,5,9-tetramethyl-5H-4λ4,5λ4-dipyrrolo[1,2-c:2′,1′-f][1,3,2]diazaborinin-10-yl)methanol]
CNV area by OCTA ([1]; with light irradiation (656 nm, 50mw/cm^2, 5 min)): negligible effect

ATWLPPRAANLLMAAS [AS16 peptide]
HUVEC migration [2]: least migrated HUVECs | wound healing (recovery of scratches) [3]: significant compromised recovery of generated scratches | CNV area by OCTA ([1]; without light exposure): negligible effect | therapeutic effect compared with control group, tests in vivo [4]: negligible therapeutic effect

FPNWSLRPMNQM [FM12 peptide]
gene expression level of IL-2 [5]: promote the gene expression level | gene expression level of TNF-α [5]: promote the gene expression level
